Calls of active or inactive are those of the source. The calls are words filed in the database; no cut-off is given here.
What was measured:
[1] = tested on: LX-2; assay: Antifibrotic activity against TGF-beta1 stimulated human LX-2 cells assessed as reduction in COL1A1 expression at 100 uM incubated for 24 hrs by Western blotting analysis; assay type: functional, cell-based
[2] = tested on: LX-2; assay: Antifibrotic activity against TGF-beta1 stimulated human LX-2 cells assessed as reduction in alpha-SMA expression at 100 uM incubated for 24 hrs by Western blotting analysis; assay type: functional, cell-based
[3] = organism: Homo sapiens; assay: Inhibition of TGF-beta induced his tagged human SMAD2/human SMAD4 interaction at 100 uM incubated for 1 hr followed by anti-His-HRP addition and measured after 1 hr by blocking assay relative to control; settings: time 2.0 hrs
[4] = tested on: LX-2; assay: Downregulation of TGF-beta induced SMAD2 phosphorylation level in human LX-2 cells at 100 uM by Immunoblot analysis; assay type: functional, cell-based
[5] = tested on: LX-2; assay: Downregulation of TGF-beta induced P65 phosphorylation level in human LX-2 cells at 100 uM by Immunoblot analysis; assay type: functional, cell-based
[6] = tested on: LX-2; assay: Downregulation of TGF-beta induced alpha-SMA level in human LX-2 cells at 100 uM by Immunoblot analysis; assay type: functional, cell-based
[7] = tested on: LX-2; assay: Downregulation of TGF-beta induced COL1A1 level in human LX-2 cells at 100 uM by Immunoblot analysis; assay type: functional, cell-based
[8] = tested on: LX-2; assay: Inhibition of TGF-beta induced SMAD3 phosphorylation level in human LX-2 cells at 100 uM by Western blot analysis; assay type: functional, cell-based
[9] = tested on: LX-2; assay: Inhibition of TGF-beta induced SMAD1/5/8 phosphorylation level in human LX-2 cells at 100 uM by Western blot analysis; assay type: functional, cell-based
[10] = tested on: LX-2; assay: Inhibition of TGF-beta induced SMAD2 phosphorylation level in human LX-2 cells by Western blot analysis; assay type: functional, cell-based; settings: dose 25-100 µM
[11] = tested on: LX-2; assay: Inhibition of HSC activation in TGFbeta-induced human LX-2 cells assessed as reduction in alpha-SMA by Western blot analysis; assay type: functional, cell-based; settings: dose 25-100 µM
[12] = tested on: LX-2; assay: Inhibition of HSC activation in TGFbeta-induced human LX-2 cells assessed as reduction in COL1A1 by Western blot analysis; assay type: functional, cell-based; settings: dose 25-100 µM
[13] = tested on: LX-2; assay: Inhibition of TGF-beta induced SMAD2 phosphorylation level in human LX-2 cells at 100 uM by Western blot analysis; assay type: functional, cell-based
[14] = tested on: LX-2; assay: Inhibition of HSC activation in TGFbeta-induced human LX-2 cells assessed as reduction in alpha-SMA at 100 uM by Western blot analysis; assay type: functional, cell-based
[15] = tested on: LX-2; assay: Inhibition of HSC activation in TGFbeta-induced human LX-2 cells assessed as reduction in COL1A1 at 100 uM by Western blot analysis; assay type: functional, cell-based
[16] = tested on: LX-2; assay: Inhibition of SMAD2 phosphorylation level in TGF-beta and TMSO induced human LX-2 cells at 300 uM by immunoblot analysis; assay type: functional, cell-based
[17] = tested on: Mus musculus; assay: Anti-fibrotic activity against CCl4-induced liver fibrosis male C57BL/6J mouse model assessed as effect on SMAD3 phosphorylation in liver at 400 microg/kg, ip measured for 3 weeks by Western blot analysis; assay type: functional, organism-based; settings: dose 400.0 µg/kg
[18] = tested on: Mus musculus; assay: Anti-fibrotic activity against CCl4-induced liver fibrosis male C57BL/6J mouse model assessed as reduction in COL1A1 expression in liver at 400 microg/kg, ip measured for 3 weeks by Western blot analysis; assay type: functional, organism-based; settings: dose 400.0 µg/kg
[19] = tested on: Mus musculus; assay: Anti-fibrotic activity against CCl4-induced liver fibrosis male C57BL/6J mouse model assessed as reduction in alpha-SMA expression in liver at 400 microg/kg, ip measured for 3 weeks by Western blot analysis; assay type: functional, organism-based; settings: dose 400.0 µg/kg
[20] = tested on: Mus musculus; assay: Anti-fibrotic activity against CCl4-induced liver fibrosis male C57BL/6J mouse model assessed as reduction in P65 phosphorylation level in liver at 400 microg/kg, ip measured for 3 weeks by Western blot analysis; assay type: functional, organism-based; settings: dose 400.0 µg/kg
[21] = tested on: Mus musculus; assay: Anti-fibrotic activity against CCl4-induced liver fibrosis male C57BL/6J mouse model assessed as reduction in SMAD2 level in liver at 400 microg/kg, ip measured for 3 weeks by Western blot analysis; assay type: functional, organism-based; settings: dose 400.0 µg/kg
[22] = tested on: Mus musculus; assay: Anti-fibrotic activity against CCl4-induced liver fibrosis male C57BL/6J mouse model assessed as reduction of AST level at 400 microg/kg, ip measured for 3 weeks by biochemical analysis; assay type: functional, organism-based; settings: dose 400.0 µg/kg
[23] = tested on: Mus musculus; assay: Anti-fibrotic activity against CCl4-induced liver fibrosis male C57BL/6J mouse model assessed as reduction of ALT level at 400 microg/kg, ip measured for 3 weeks by biochemical analysis; assay type: functional, organism-based; settings: dose 400.0 µg/kg
[24] = tested on: Mus musculus; assay: Anti-fibrotic activity against CCl4-induced liver fibrosis male C57BL/6J mouse model assessed as alleviation of COL1A1 level at 400 microg/kg, ip measured for 3 weeks by immunohistochemical staining based analysis; assay type: functional, organism-based; settings: dose 400.0 µg/kg
[25] = tested on: Mus musculus; assay: Anti-fibrotic activity against CCl4-induced liver fibrosis male C57BL/6J mouse model assessed as alleviation of alpha SMA level at 400 microg/kg, ip measured for 3 weeks by immunohistochemical staining based analysis; assay type: functional, organism-based; settings: dose 400.0 µg/kg
[26] = tested on: Mus musculus; assay: Anti-fibrotic activity against CCl4-induced liver fibrosis male C57BL/6J mouse model assessed as decrease in collagen deposition at 400 microg/kg, ip measured for 3 weeks; assay type: functional, organism-based; settings: dose 400.0 µg/kg
[27] = tested on: Mus musculus; assay: Anti-fibrotic activity against CCl4-induced liver fibrosis male C57BL/6J mouse model assessed as decrease in inflammatory infiltration at 400 microg/kg, ip measured for 3 weeks; assay type: functional, organism-based; settings: dose 400.0 µg/kg
[28] = Stability in rat serum measured up to 48 hrs by LC-MS/MS analysis; assay type: ADME, cell-free
[29] = organism: Mus musculus; assay: Effect on gene expression in CCl4-induced male C57BL/6J mouse assessed as change in genes associated with biological process in liver tissue by RT-PCR analysis; assay type: functional, organism-based
[30] = organism: Mus musculus; assay: Effect on gene expression in CCl4-induced male C57BL/6J mouse assessed as change in genes associated with cellular component in liver tissue by RT-PCR analysis; assay type: functional, organism-based
[31] = organism: Mus musculus; assay: Effect on gene expression in CCl4-induced male C57BL/6J mouse assessed as change in genes associated with molecular function in liver tissue by RT-PCR analysis; assay type: functional, organism-based
[32] = organism: Mus musculus; assay: Effect on gene expression in CCl4-induced male C57BL/6J mouse assessed as upregulation of genes associated with inflammatory response in liver tissue by RT-PCR analysis; assay type: functional, organism-based
[33] = organism: Mus musculus; assay: Effect on gene expression in CCl4-induced male C57BL/6J mouse assessed as upregulation of genes associated with collagen deposition in liver tissue by RT-PCR analysis; assay type: functional, organism-based
[34] = tested on: Mus musculus; assay: Anti-fibrotic activity against CCl4-induced liver fibrosis male C57BL/6J mouse model assessed as effect on SMAD1/5/8 phosphorylation in liver at 400 microg/kg, ip measured for 3 weeks by Western blot analysis; assay type: functional, organism-based; settings: dose 400.0 µg/kg

C[C@@H]1NC(=O)[C@@H]2CCCN2C(=O)[C@H](CCCNC(=N)N)NC(=O)[C@H]([C@@H](C)O)NC(=O)[C@H](CO)NC(=O)[C@H]([C@@H](C)O)NC(=O)[C@H](CCC(=O)O)NC(=O)[C@H](Cc2c[nH]c3ccccc23)NC(=O)[C@@H](Cc2ccccc2)NC(=O)[C@H](CO)NC1=O
Activity [1]: Active | Activity [2]: Active | inhibition [3]: 85.6% | Activity [4]: Active | Activity [5]: Active | Activity [6]: Active | Activity [7]: Active | inhibition [8]: inactive | inhibition [9]: inactive | inhibition [10]: Dose-dependent-effect | inhibition [11]: Dose-dependent-effect | inhibition [12]: Dose-dependent-effect | inhibition [13]: Active | inhibition [14]: Active | inhibition [15]: Active | inhibition [16]: inactive | Activity [17]: inactive | Activity [18]: Active; Compound Showed Superior Effect Than M10 | Activity [19]: Active; Compound Showed Superior Effect Than M10 | Activity [20]: Active; Compound Showed Superior Effect Than M10 | Activity [21]: Active; Compound Showed Superior Effect Than M10 | Activity [22]: Active | Activity [23]: Active | Activity [24]: Active | Activity [25]: Active | Activity [26]: Active; Compound Showed Higher Efficacy Than M10 | Activity [27]: Active; Compound Showed Higher Efficacy Than M10 | Stability [28]: Stable | Activity [29]: Active | Activity [30]: Active | Activity [31]: Active | Activity [32]: Active | Activity [33]: Active | Activity [34]: inactive

— ChEMBL document CHEMBL6177985, “Discovery of Novel Cyclic Peptides as SMAD2-SMAD4 Interaction Inhibitors for the Treatment of Hepatic Fibrosis” (J Med Chem, 2025)
